US8609091B2, “Method for endocytic presentation of an immunosuppressive for the treatment of type 1 diabetes” (The Curators of the University of Missouri, priority 2002, dated 2013)

How the values were obtained:
Type in all cases: cell-based, NOD mice
[1] = test system: INSβ-specific T cell line; test: Presentation to INSβ-specific T cell line ([3H]thymidine proliferation); conditions: irradiated NOD splenic APCs; peptides 10 μM, Ig-chimeras 1 μM; 3-day incubation
Description: T cell lines: A T cell line specific for INSβ peptide was generated by immunizing NOD mice with 100 μg of INSβ peptide in 200 μl PBS/CFA (vol/vol) subcutaneously (“s.c.”) in the footpads and at the base of each limb. After 10 days, the draining lymph nodes were removed, and T cells were stimulated in vitro for 2 rounds in the presence of irradiated (3000 rads), syngenic splenocytes, 5% T-Stim supplement (Collaborative Biomedical Products, Bedford, Mass.), and INSβ peptide (25 μg/ml). […]
(§1) Presentation of Ig-INSβ chimera to specific T cells was then determined. […] For presentation of INSβ peptide and Ig-INSβ (FIGS. 2(a) and 2(b) respectively), the activation was assessed by [^3H] thymidine incorporation since the T cells were from a line. Accordingly, 1 μCi [^3H]thymidine per well was added during the last 14 hours of a 3-day incubation period and the cells were harvested, and the radioactivity counted. For presentation of HEL peptide (FIG. 2(c)) and Ig-HEL (FIG. 2(d)), T cell activation was assessed by measuring IL-2 production as the HEL-specific cells were from a hybridoma. Accordingly, after 24 hours incubation IL-2 was measured in 100 μl supernatant by ELISA. […]

HEL-specific hybridoma = test: Presentation to HEL-specific T cell hybridoma (IL-2 production); conditions: irradiated NOD splenocytes; peptides 10 μM, Ig-chimeras 1 μM; 24 hours
Description: T cell hybridomas: A HEL-specific T cell line was fused with the αβ TCR negative thymoma BW1100 (ATCC) using polyethylene glycol 4000 (Sigma, St. Louis, Mo.). Hybrids were then selected by supplementing the culture media with hypoxanthine-azaserine (Sigma). Resulting hybridomas were then screened for reactivity to HEL peptide by testing for production of IL-2 in the supernatant following stimulation with irradiated (3000 rads) splenocytes in the presence of 15 μg/ml HEL peptide. Positive hybridomas were then cloned by limiting dilution and used to assess presentation of HEL peptide and Ig-HEL chimera.
as §1

Splenic cells = test: IFNγ response of splenic cells from 14 week old mice; conditions: INSβ peptide 18 μM, Ig-INSβ chimeras 1 μM; 24 hours; no rIL-10
Description: (§2) Detection of IL-10 and IFNγ was performed according to BD Pharmingen's standard protocol. The capture Abs were as follows: rat anti-mouse IL-10, JES5-2A5 and rat anti-mouse IFNγ, R4-6A2. The biotinylated anti-cytokine Abs were as follows: rat anti-mouse IL-10, JES5-16E3 and rat anti-mouse IFNγ, XMG1.2. Both antibodies were purchased from BD Pharmingen (San Diego, Calif.). ELISA for the detection of active TGFβ was preformed using the human TGFβ1 DuoSet kit (R&D systems, Minneapolis, Minn.) according to the manufacturer's instructions. […] All assays were read on a SpectraMAX 190 counter. Graded amounts of recombinant mouse IFNγ, IL-10, and TGFβ were included in all experiments for construction of standard curves. The cytokine concentration in culture supernatants was interpolated from the linear portion of the standard curve.
To test this premise, splenic and islet cells from 14 week old mice were stimulated with agg Ig-INSβ, which induces IL-10 production by the presenting APCs and secretion of IFNγ was measured. Splenic (a) and islet (b) cells (5×10^5 cells/well) from 14 week old female NOD mice were stimulated with the indicated antigen in the presence or absence of 1 ng of rIL-10 for 24 hours. The supernatant (100 μl/well) was used to measure IFNγ by ELISA as indicated in “Materials and Methods”. […]

islet cells = test: IFNγ response of islet cells from 14 week old mice; conditions: INSβ peptide 18 μM, Ig-INSβ chimeras 1 μM; 24 hours; no rIL-10
Description: as §2
Islet-infiltrating cells were derived from 14 week old female NOD mice by collagenase digestion as previously described (36). […] Viability of the cells was determined by trypan blue exclusion.
To test this premise, splenic and islet cells from 14 week old mice were stimulated with agg Ig-INSβ, which induces IL-10 production by the presenting APCs and secretion of IFNγ was measured. […]

Sequence | proliferation of the INSβ-specific T cell line [1] | stimulation of HEL-specific hybridoma (IL-2 production) (HEL-specific hybridoma) | IFNγ response of splenic T cells (Splenic cells) | IFNγ response of islet T cells (islet cells)
AMKRHGLDNYRGYSL [HEL peptide] | unable to induce proliferation | able to stimulate the HEL-specific hybridoma | – | –
SHLVEALYLVCGERG [INSβ peptide] | proliferated significantly | – | developed IFNγ responses | developed IFNγ responses
